Experiments:
[1] = test system: angiotensin II receptor subtype 1 (AT1); assay: Binding to receptors: inhibition of radioligand (3H-angiotensin II) binding to AT1; settings: rabbit adrenal glands, tracer 3H-angiotensin II, displacer DuP753, room temperature
Method: (§1) In this Example, the affinity to the angiotensin II receptor subtype 1 or subtype 2 was evaluated by a binding assay in accordance with the method described in Biochem. Pharmacol., 33, 4057-4062 (1984).
(§2) Specifically, the measurement of the total binding in the presence of each drug was performed as follows:
(§3) A mixture (final volume=0.25 ml) of a drug in a given concentration (the drug was dissolved in dimethylsulfoxide, and diluted to a double volume with a buffer attached to a drug discovery system to prepare a sample for the assay; 0.025 ml), a tracer (0.025 ml), and receptors (0.2 ml) was incubated [in the case of the angiotensin II receptor subtype 1 (AT1), at room temperature for 3 hours, and in the case of the subtype 2 (AT2), at 37° C. for 1 hour]. Then, the reaction mixture was filtered with suction (GF/C filter was used in AT1, and GF/B filter was used in AT2). The filter papers after filtration with suction (the tracer bound to the receptors) were counted by a γ-wellcounter (ARC-500, Aloka). The non-specific bindings were measured by repeating the above method, except that a large excess amount of a displacer was added. The specific binding of the drug in the given concentration was calculated by subtracting the non-specific binding from the total binding, respectively. […]

[2] = test system: angiotensin II receptor subtype 2 (AT2); assay: Binding to receptors: inhibition of radioligand (125I-Tyr4-angiotensin II) binding to AT2; settings: bovine cerebellar cortex, tracer 125I-Tyr4-angiotensin II, displacer angiotensin II (human), 37° C., 1 hour
Method: as §1, §2, §3

Compound | Binding inhibition % in 1 μM, AT1 [1] [%] | Binding inhibition % in 1 μM, AT2 [2] [%]
CCCCc1nc2ccc(S(=O)(=O)N3CCOCC3)cc2n1Cc1ccc(-c2ccccc2-c2nn[nH]n2)cc1 [Compound No. 1, 4-[[2-n-butyl-1-[2'-[(1H-tetrazol-5-yl)biphenyl-4-yl]methyl]benzimidazol-6-yl]sulfonyl]morpholin] | 100 | 0
CCCCc1nc(Cl)c(CO)n1Cc1ccc(-c2ccccc2-c2nnn[nH]2)cc1 [DuP753, 2-butyl-4-chloro-5-(hydroxymethyl)-1-[[2'-(1H-tetrazol-5-yl)biphenyl-4-yl]methyl]imidazole] | 95 | 0

From patent US5637586A, “Benzimidazolesulfonamide derivatives and pharmaceutical composition” (Kureha Chemical Industry Co., Ltd., priority 1994, dated 1997)
